Measurements as given in patent US5506238A, “Biphenylmethane derivative and pharmacological use” (Eisai Co., Ltd., priority 1989, dated 1996).

What was measured:
[1] = biological target: T1, angiotensin II contracture of rabbit aortic strip (Oryctolagus cuniculus, UniProt P34976); assay: Angiotensin II contracture antagonism through the use of rabbit aortic strip; format: cell-based, rabbit (New Zealand white); settings: negative log of antagonist concentration giving dose ratio 2, Schild's equation, 40 min preincubation, read-out: pA2 (converted)
T1 construct: A spiral preparation of the aorta having a width of 1.5 to 2 mm and a length of 15 to 20 mm was prepared therefrom; from tissue; host or cells: thoracic aorta of male New Zealand white rabbit, spiral strip
T1 sequence (P34976 1-359): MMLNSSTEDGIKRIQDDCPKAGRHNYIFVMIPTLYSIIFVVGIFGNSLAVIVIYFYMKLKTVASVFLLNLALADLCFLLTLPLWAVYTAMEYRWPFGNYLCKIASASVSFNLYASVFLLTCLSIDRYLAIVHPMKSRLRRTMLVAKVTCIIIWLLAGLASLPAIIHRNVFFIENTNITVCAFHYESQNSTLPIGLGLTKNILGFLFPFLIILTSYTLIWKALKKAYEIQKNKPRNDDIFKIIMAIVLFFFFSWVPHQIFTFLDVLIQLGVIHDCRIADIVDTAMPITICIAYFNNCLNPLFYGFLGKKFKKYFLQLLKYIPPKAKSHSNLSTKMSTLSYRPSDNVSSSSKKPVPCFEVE
Protocol: (1) Angiotens in II contracture antagonism through the use of rabbit aortic strip A male New Zealand white rabbit having a weight of 2 to 3 kg was anesthetized with pentobarbital sodium, and the thoracic aorta was removed. A spiral preparation of the aorta having a width of 1.5 to 2 mm and a length of 15 to 20 mm was prepared therefrom and suspended in a 10-ml Magnus tank containing a Krebs bicarbonate solution (Krebs bicarbonate (mM): NaCl 118.4, KCl 4.7, CaCl2 2.0, MgSO4.7H2O 1.2, NaHCO3.25.0, KH2 PO4 1.2, glucose 11.1). 10^-5 M indomethacine was added thereto to eliminate the influence of prostaglandin. The Krebs solution was maintained at 37° C. and bubbled with 95% O2 -5% CO2. An initial tension of 1 g was applied to the strip, and the strip was allowed to stand for about 1 hr. Then, 50 mM KCl was added thereto to induce contracture. After the contracture was stabilized, the strip was washed. The above procedure was repeated twice, and the second contracture was taken as 100% contracture. Thereafter, angiotensin II was accumulatively added from 10^-10 to 3×10^-6 to prepare a dose-reaction curve. […] The contraction was recorded on a multi-pen recorder (R-10 manufactured by Rika Denki Kogyo Co., Ltd.) through a carrier amplifier (A[…] or A[…] manufactured by Nihon Koden Corp.) by making use of an isometric piezoelectric transducer ([…] manufactured by Nihon Koden Corp.). The potency of the angiotensin II antagonist was determined by calculating negative logarithm (-log) of a concentration of pA2 value [i.e., a concentration of competitive antagonist which makes the dose ratio of the active agent 2] through the use of Schild's equation.

[2] = system: pressor reaction of angiotensin II; assay: Inhibition of pressor reaction of angiotensin II on anesthetized rat (Wistar Kyoto) having blocked ganglions; format: in vivo; settings: iv, 0.05 h, ganglion-blocked Wistar Kyoto rat, i.v., 3 min after administration, read-out: Dose necessary for shifting about doubled shift of pressor reaction of angiotensin toward right (ED50)
Protocol: (2) Inhibition of pressor reaction of angiotensin II on anesthetized rat (Wistar Kyoto) having blocked ganglions
A 9 to 25 week-old Wistar Kyoto male rat (Charles River Japan) was anesthetized with 50 mg/kg pentobarbital sodium intraperitoneally, and the carotid and jugular were cannulated. The carotid cannula was connected to a piezoelectric transducer (TP-200T), and recording was conducted with a polygraph system (RM-6000 manufactured by Nihon Koden Corp.) through a carrier amplifier (AP-601G manufactured by Nihon Koden Corp.) and an average blood pressure measuring panel (Nihon Koden Corp.) utilizing the integration of pulse waves. 10 mg/kg of pentolinium was administered intravenously through the jugular cannula to conduct ganglion blockade. […] Then, 0.1 to 10 mg/kg of the test compound was administered intravenously, and 0.03 to 1 μg/kg of angiotensin II was again administered intravenously 3 min after the administration of the test compound to determine the rate of shift of the dose-pressor reaction curve toward the right. A dose (C, ED50, mg/kg, i.v.) necessary for bringing about doubled shift of the dose-pressor reaction curve toward the right was determined from the dose of the antagonist (A, mg/kg, i.v.) and the above-described rate of shift (B). [formula]

[3] = Seven-day repeated oral administration, observation of death in SD rats; format: in vivo; settings: 100 mg/kg/day orally for seven days; eight week-old male SD rats; observed until 24 hr after final administration
Protocol: Further, compound Nos. 1, 2, 5 and 6 listed in the above-described Table 1 were suspended in 0.5% MC (methylcellulose), and the suspension was orally administered to an eight week-old male SD (Sprague Dawley) rats (4 rats per group) in a dose of 100 mg/kg/day for seven days. The rats were observed until 24 hr after the final administration.

| Kb [1] [nM] | Structure (SMILES) | ED50 [2] [mg/kg] | death [3] |
| --- | --- | --- | --- |
| 1.55 | CCCc1nc2cccnc2n1Cc1ccc(-c2cc(Cl)ccc2-c2nnn[nH]2)cc1 [compound 3] | 0.44 |  |
| 10 | CCc1nc2cc(Br)cnc2n1Cc1ccc(-c2ccccc2-c2nnn[nH]2)cc1 [compound 4] | 1.57 |  |
| 0.0229 | Cc1ccnc2c1nc(C1CC1)n2Cc1ccc(-c2ccccc2-c2nnn[nH]2)cc1 [compound 7] | 0.022 |  |
| 4.27 | CCCCc1nc2cccnc2n1Cc1ccc(-c2cc(OC)ccc2-c2nnn[nH]2)cc1 [compound 8] | 0.71 |  |
| 23.4 | CCCc1ccnc2c1nc(CC)n2Cc1ccc(-c2ccccc2-c2nnn[nH]2)cc1 [compound 9] | 1.33 |  |
| 0.661 | Cc1ccnc2c1nc(C(C)C)n2Cc1ccc(-c2ccccc2-c2nnn[nH]2)cc1 [compound 10] | 0.42 |  |
| 0.182 | CCSc1nc2c(C)ccnc2n1Cc1ccc(-c2ccccc2-c2nnn[nH]2)cc1 [compound 11] | 0.04 |  |
| 0.525 | CSc1nc2c(C)ccnc2n1Cc1ccc(-c2ccccc2-c2nnn[nH]2)cc1 [compound 12] | 0.13 |  |
| 8.71 | CCCc1nc2c(Cl)ccnc2n1Cc1ccc(-c2ccccc2C(=O)O)cc1 [compound 13] | 0.66 |  |
| 2.95 | CCc1nc2ccc(Cl)nc2n1Cc1ccc(-c2ccccc2-c2nnn[nH]2)cc1 [compound 14] | 0.35 |  |
| 1.35 | CCCc1nc2c(C)c(Cl)cnc2n1Cc1ccc(-c2ccccc2-c2nnn[nH]2)cc1 [compound 15] | 0.32 |  |
| 3.16 | CCc1nc2c(C)ccnc2n1Cc1ccc(-c2ccccc2C(=O)O)cc1 [compound 16] | 0.29 |  |
| 3.55 | CCCc1nc2c(C)ccnc2n1Cc1ccc(-c2ccccc2C(=O)O)cc1 [compound 17] | 0.17 |  |
| 2.14 | Cc1ccnc2c1nc(C1CC1)n2Cc1ccc(-c2ccccc2C(=O)O)cc1 [compound 18] | 0.075 |  |
| 4.9 | Cc1ccnc2c1nc(C1CCC1)n2Cc1ccc(-c2ccccc2C(=O)O)cc1 [compound 19] | 0.25 |  |
| 5.25 | CCSc1nc2c(C)ccnc2n1Cc1ccc(-c2ccccc2C(=O)O)cc1 [compound 20] | 0.41 |  |
| 0.0115 | CCCc1nc2c(C)ccnc2n1Cc1ccc(-c2cc(Cl)ccc2-c2nnn[nH]2)cc1 [compound 21] | 0.071 |  |
| 0.024 | CCCc1nc2c(C)cc(C)nc2n1Cc1ccc(-c2ccccc2-c2nnn[nH]2)cc1 [compound 22] | 0.04 |  |
| 1.15 | CCCc1nc2c(C)cc(C)nc2n1Cc1ccc(-c2ccccc2C(=O)O)cc1 [compound 23] | 0.08 |  |
| 0.0138 | Cc1cc(C)c2nc(C3CC3)n(Cc3ccc(-c4ccccc4-c4nnn[nH]4)cc3)c2n1 [compound 24] | 0.015 |  |
| 0.589 | Cc1cc(C)c2nc(C3CC3)n(Cc3ccc(-c4ccccc4C(=O)O)cc3)c2n1 [compound 25] | 0.021 |  |
| 0.0263 | CCOc1nc2c(C)ccnc2n1Cc1ccc(-c2ccccc2-c2nnn[nH]2)cc1 [compound 26] | 0.0084 |  |
| 0.372 | CCCOc1nc2c(C)ccnc2n1Cc1ccc(-c2ccccc2-c2nnn[nH]2)cc1 [compound 27] | 0.034 |  |
| 0.891 | CC#Cc1nc2c(C)ccnc2n1Cc1ccc(-c2ccccc2-c2nnn[nH]2)cc1 [compound 28] | 0.04 |  |
| 3.39 | Cc1ccnc2c1nc(C1CC1)n2Cc1ccc(-c2cc(Cl)ccc2C(=O)O)cc1 [compound 29] | 0.06 |  |
| 0.132 | COc1nc2c(C)ccnc2n1Cc1ccc(-c2ccccc2-c2nnn[nH]2)cc1 [compound 30] | 0.016 |  |
| 0.182 | CCOc1nc2c(C)cc(C)nc2n1Cc1ccc(-c2ccccc2-c2nnn[nH]2)cc1 [compound 31] | 0.01 |  |
| 0.575 | CCOc1nc2c(C)cc(C)nc2n1Cc1ccc(-c2ccccc2C(=O)O)cc1 [compound 32] | 0.018 |  |

| Structure (SMILES) | Kb [1] [nM] | ED50 [2] [mg/kg] | death [3] |
| --- | --- | --- | --- |
| CCCCc1nc2ccccc2n1Cc1ccc(-c2ccccc2-c2nn[nH]n2)cc1 [compound 1] | 7.76 | 0.74 | no death was observed |
| CCCc1nc2cccnc2n1Cc1ccc(-c2ccccc2-c2nn[nH]n2)cc1 [compound 2] | 0.832 | 0.15 | no death was observed |
| CCCc1nc2c(C)ccnc2n1Cc1ccc(-c2ccccc2-c2nn[nH]n2)cc1 [compound 5] | 0.0468 | 0.029 | no death was observed |
| CCc1nc2c(C)ccnc2n1Cc1ccc(-c2ccccc2-c2nnn[nH]2)cc1 [compound 6] | 0.0912 | 0.019 | no death was observed |
